Reference: patent US20230278972A1, “SUBSTITUTED HALOALKYL SULFONANILIDE HERBICIDES” (FMC Corporation, priority 2020, published 2023)

Columns and labels:
Assay type in all cases: in vivo
[1] = system: ragweed (common ragweed, Ambrosia artemisiifolia); experiment: Test A1 preemergence, ragweed
Procedure, shortened: (§1)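 Pre: seeds in loam/sand blend, directed soil spray. Post: potted plants, same soil, 2–10 cm, 1–2 leaf stage. Chemicals in non-phytotoxic solvent + surfactant for both.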

[2] = system: wheat (Triticum aestivum); experiment: Test A1 preemergence, wheat
Procedure, shortened: as §1

[3] = system: Ryegrass, Italian (Italian ryegrass, Lolium multiflorum); experiment: Test A1 postemergence, Ryegrass, Italian; details: for Ryegrass, Italian plant response rating: postemergence; for Plant response rating, Ryegrass, Italian: Postemergence
Procedure, shortened: (§2)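 Plants were grown in a loam soil/sand blend, with test chemicals formulated in a non-phytotoxic solvent mixture containing surfactant. Preemergence treatment (corn) was a directed soil spray at planting. Postemergence treatment was applied to plants 2 to 10 cm tall at the one- to two-leaf stage.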

[4] = system: wheat (Triticum aestivum); experiment: Test A1 postemergence, wheat; details: for Wheat plant response rating: postemergence; for Plant response rating, Wheat: Postemergence
Procedure, shortened: as §2

[5] = 31 g ai/ha, 0 to 100 scale (0 no effect, 100 complete control)
[6] = 125 g ai/ha, 0 to 100 scale, 0 no effect, 100 complete control
[7] = 125 g ai/ha, 0 to 100 scale (0 no effect, 100 complete control), 10 days
[8] = 125 g ai/ha, 0 to 100 scale (0 no effect, 100 complete control)
[9] = 500 g ai/ha, 0 to 100 scale (0 no effect, 100 complete control)
[10] = 31 g ai/ha, 0 to 100 scale (0 no effect, 100 complete control), 10 days

## CCC1CC(c2cc(NS(=O)(=O)C(F)(F)F)c(C)cc2C)=NO1 (centres unmarked) [Compound 375]
[1]; [5]
  Plant response rating, Ragweed: 0
[1]; [6]
  Plant response rating, Ragweed: 20
[2]; [5]
  Plant response rating, Wheat: 0
[2]; [6]
  Plant response rating, Wheat: 100
[3]; [5]
  Ryegrass, Italian plant response rating: 0
[3]; 125 g ai/ha, 0 to 100 scale
  Plant response rating, Ryegrass, Italian: 40
[4]; [5]
  Wheat plant response rating: 0
[4]; 125 g ai/ha, 0 to 100 scale
  Plant response rating, Wheat: 70

## COC1CCC2(CC1)CCN(c1cc(NS(=O)(=O)C(F)(F)F)c(C)cc1C)C2=O (centres unmarked) [Compound 398]
[1]; [5]
  Plant response rating, Ragweed: 20
[1]; [6]
  Plant response rating, Ragweed: 80
[2]; [5]
  Plant response rating, Wheat: 20
[2]; [6]
  Plant response rating, Wheat: 90
[3]; [5]
  Ryegrass, Italian plant response rating: 50
[3]; [7]
  Plant response rating, Ryegrass, Italian: 90
[4]; [5]
  Wheat plant response rating: 60
[4]; [7]
  Plant response rating, Wheat: 70

## Cc1cc(C)c(N2Cc3cccc(Br)c3C2=O)cc1NS(=O)(=O)Cl [Compound 415]
[1]; [8]
  Plant response rating, Ragweed: 90
[2]; [8]
  Plant response rating, Wheat: 50
[3]; [5]
  Ryegrass, Italian plant response rating: 0
[3]; [7]
  Plant response rating, Ryegrass, Italian: 60
[4]; [5]
  Wheat plant response rating: 20
[4]; [7]
  Plant response rating, Wheat: 70

## C#CCN(C)C(=O)c1cc(NS(=O)(=O)C(F)(F)F)c(C)c(C)c1C [Compound 368]
[1]; [5]
  Plant response rating, Ragweed: 50
[1]; [6]
  Plant response rating, Ragweed: 80
[2]; [5]
  Plant response rating, Wheat: 20
[2]; [6]
  Plant response rating, Wheat: 100
[3]; [5]
  Ryegrass, Italian plant response rating: 20
[3]; 125 g ai/ha, 0 to 100 scale
  Plant response rating, Ryegrass, Italian: 90
[4]; [5]
  Wheat plant response rating: 20
[4]; 125 g ai/ha, 0 to 100 scale
  Plant response rating, Wheat: 60

## Cc1ccc(C2=NOC3CCCC23)cc1NS(=O)(=O)C(F)(F)F (centres unmarked) [Compound 377]
[1]; [5]
  Plant response rating, Ragweed: 0
[1]; [6]
  Plant response rating, Ragweed: 0
[2]; [5]
  Plant response rating, Wheat: 0
[2]; [6]
  Plant response rating, Wheat: 20
[3]; [5]
  Ryegrass, Italian plant response rating: 0
[3]; 125 g ai/ha, 0 to 100 scale
  Plant response rating, Ryegrass, Italian: 0
[4]; [5]
  Wheat plant response rating: 0
[4]; 125 g ai/ha, 0 to 100 scale
  Plant response rating, Wheat: 20

## Cc1c(C(=O)N2CCC(C)CC2)cc(N(COC(=O)C(C)(C)C)S(=O)(=O)C(F)(F)F)c(C)c1C [Compound 369]
[1]; [5]
  Plant response rating, Ragweed: 0
[1]; [6]
  Plant response rating, Ragweed: 90
[2]; [5]
  Plant response rating, Wheat: 0
[2]; [6]
  Plant response rating, Wheat: 0
[3]; [5]
  Ryegrass, Italian plant response rating: 0
[3]; 125 g ai/ha, 0 to 100 scale
  Plant response rating, Ryegrass, Italian: 20
[4]; [5]
  Wheat plant response rating: 0
[4]; 125 g ai/ha, 0 to 100 scale
  Plant response rating, Wheat: 20

## Cc1c(C2=NOC3(CCCC3)C2)cc(N(COC(=O)C(C)(C)C)S(=O)(=O)C(F)(F)F)c(C)c1C [Compound 382]
[1]; [5]
  Plant response rating, Ragweed: 0
[1]; [6]
  Plant response rating, Ragweed: 0
[2]; [5]
  Plant response rating, Wheat: 20
[2]; [6]
  Plant response rating, Wheat: 20
[3]; [5]
  Ryegrass, Italian plant response rating: 0
[3]; [7]
  Plant response rating, Ryegrass, Italian: 0
[4]; [5]
  Wheat plant response rating: 0
[4]; [7]
  Plant response rating, Wheat: 60

## Cc1cc(C)c(N2CCC3(CCC(C)CC3)C2=O)cc1NS(=O)(=O)C(F)(F)F (centres unmarked) [Compound 402]
[1]; [5]
  Plant response rating, Ragweed: 20
[1]; [6]
  Plant response rating, Ragweed: 50
[2]; [5]
  Plant response rating, Wheat: 30
[2]; [6]
  Plant response rating, Wheat: 50
[3]; [5]
  Ryegrass, Italian plant response rating: 0
[3]; [7]
  Plant response rating, Ryegrass, Italian: 0
[4]; [5]
  Wheat plant response rating: 0
[4]; [7]
  Plant response rating, Wheat: 0

## Cc1cc(Cl)c(NS(=O)(=O)C(F)(F)F)cc1N1CCC2(CCCCC2)C1=O [Compound 393]
[1]; [5]
  Plant response rating, Ragweed: 40
[1]; [6]
  Plant response rating, Ragweed: 90
[2]; [5]
  Plant response rating, Wheat: 40
[2]; [6]
  Plant response rating, Wheat: 60
[3]; [5]
  Ryegrass, Italian plant response rating: 30
[3]; [7]
  Plant response rating, Ryegrass, Italian: 50
[4]; [5]
  Wheat plant response rating: 30
[4]; [7]
  Plant response rating, Wheat: 60

## CCOC(=O)N(c1cc(C2=NOC3CCCC23)c(CC)cc1C)S(=O)(=O)C(F)(F)F (centres unmarked) [Compound 379]
[1]; [5]
  Plant response rating, Ragweed: 0
[1]; [6]
  Plant response rating, Ragweed: 0
[2]; [5]
  Plant response rating, Wheat: 0
[2]; [6]
  Plant response rating, Wheat: 30
[3]; [5]
  Ryegrass, Italian plant response rating: 0
[3]; 125 g ai/ha, 0 to 100 scale
  Plant response rating, Ryegrass, Italian: 0
[4]; [5]
  Wheat plant response rating: 20
[4]; 125 g ai/ha, 0 to 100 scale
  Plant response rating, Wheat: 70

## Cc1cc(Cl)c(NS(=O)(=O)C(F)(F)F)cc1N1CC2(CCCCC2)OC1=O [Compound 394]
[1]; [5]
  Plant response rating, Ragweed: 40
[1]; [6]
  Plant response rating, Ragweed: 90
[2]; [5]
  Plant response rating, Wheat: 30
[2]; [6]
  Plant response rating, Wheat: 70
[3]; [5]
  Ryegrass, Italian plant response rating: 20
[3]; [7]
  Plant response rating, Ryegrass, Italian: 40
[4]; [5]
  Wheat plant response rating: 10
[4]; [7]
  Plant response rating, Wheat: 40

## COC1CCN(C(=O)c2cc(NS(=O)(=O)C(F)(F)F)c(C)c(C)c2C)CC1 [Compound 367]
[1]; [5]
  Plant response rating, Ragweed: 20
[1]; [6]
  Plant response rating, Ragweed: 90
[2]; [5]
  Plant response rating, Wheat: 10
[2]; [6]
  Plant response rating, Wheat: 40
[3]; [5]
  Ryegrass, Italian plant response rating: 0
[3]; 125 g ai/ha, 0 to 100 scale
  Plant response rating, Ryegrass, Italian: 0
[4]; [5]
  Wheat plant response rating: 0
[4]; 125 g ai/ha, 0 to 100 scale
  Plant response rating, Wheat: 20

## Cc1cc(C)c(N(COC(=O)C(C)(C)C)S(=O)(=O)C(F)(F)F)cc1N1CCC2(CCC(C)CC2)C1=O (centres unmarked) [Compound 401]
[1]; [5]
  Plant response rating, Ragweed: 0
[1]; [6]
  Plant response rating, Ragweed: 10
[2]; [5]
  Plant response rating, Wheat: 0
[2]; [6]
  Plant response rating, Wheat: 0
[3]; [5]
  Ryegrass, Italian plant response rating: 0
[3]; [7]
  Plant response rating, Ryegrass, Italian: 0
[4]; [5]
  Wheat plant response rating: 0
[4]; [7]
  Plant response rating, Wheat: 10

## Cc1cc(C)c(N(COC(=O)C(C)(C)C)S(=O)(=O)C(F)(F)F)cc1N1CCC2(CCC(F)(F)CC2)C1=O [Compound 397]
[1]; [6]
  Plant response rating, Ragweed: 90
[1]; [9]
  Plant response rating, Ragweed: 90
[2]; [6]
  Plant response rating, Wheat: 20
[2]; [9]
  Plant response rating, Wheat: 100
[3]; [7]
  Plant response rating, Ryegrass, Italian: 50
[3]; 500 g ai/ha, 0 to 100 scale
  Plant response rating, Ryegrass, Italian: 80
[4]; [7]
  Plant response rating, Wheat: 60
[4]; 500 g ai/ha, 0 to 100 scale
  Plant response rating, Wheat: 70

## Cc1cc(C)c(C2=NOC3OCCCC23)cc1NS(=O)(=O)C(F)(F)F (centres unmarked) [Compound 372]
[1]; [5]
  Plant response rating, Ragweed: 0
[1]; [6]
  Plant response rating, Ragweed: 70
[2]; [5]
  Plant response rating, Wheat: 10
[2]; [6]
  Plant response rating, Wheat: 30
[3]; [5]
  Ryegrass, Italian plant response rating: 0
[3]; 125 g ai/ha, 0 to 100 scale
  Plant response rating, Ryegrass, Italian: 50
[4]; [5]
  Wheat plant response rating: 10
[4]; 125 g ai/ha, 0 to 100 scale
  Plant response rating, Wheat: 70

## Cc1c(NS(=O)(=O)C(F)(F)F)cc(C(=O)N2CCSCC2)c(C)c1C [Compound 283]
[1]; [5]
  Plant response rating, Ragweed: 0
[1]; [6]
  Plant response rating, Ragweed: 40
[2]; [5]
  Plant response rating, Wheat: 0
[2]; [6]
  Plant response rating, Wheat: 50
[3]; [10]
  Plant response rating, Ryegrass, Italian: 0
[3]; 125 g ai/ha, 0 to 100 scale
  Plant response rating, Ryegrass, Italian: 40
[4]; [10]
  Plant response rating, Wheat: 10
[4]; 125 g ai/ha, 0 to 100 scale
  Plant response rating, Wheat: 50

## Cc1cc(C)c(N2CCC3(CCC(C(F)(F)F)CC3)C2=O)cc1NS(=O)(=O)C(F)(F)F (centres unmarked) [Compound 400]
[1]; [5]
  Plant response rating, Ragweed: 70
[1]; [6]
  Plant response rating, Ragweed: 90
[2]; [5]
  Plant response rating, Wheat: 10
[2]; [6]
  Plant response rating, Wheat: 80
[3]; [5]
  Ryegrass, Italian plant response rating: 0
[3]; [7]
  Plant response rating, Ryegrass, Italian: 0
[4]; [5]
  Wheat plant response rating: 30
[4]; [7]
  Plant response rating, Wheat: 30

## COc1cccc2c1C(=O)N(c1cc(N(COC(=O)C(C)(C)C)S(=O)(=O)Cl)c(C)cc1C)C2 [Compound 413]
[1]; [8]
  Plant response rating, Ragweed: 90
[2]; [8]
  Plant response rating, Wheat: 0
[3]; [5]
  Ryegrass, Italian plant response rating: 0
[3]; [7]
  Plant response rating, Ryegrass, Italian: 0
[4]; [5]
  Wheat plant response rating: 0
[4]; [7]
  Plant response rating, Wheat: 0

## Cc1c(C(=O)N2C[C@@H](C)O[C@H](C)C2)cc(N(COC(=O)C(C)(C)C)S(=O)(=O)C(F)(F)F)c(C)c1C (relative stereo) [Compound 373]
[1]; [5]
  Plant response rating, Ragweed: 50
[1]; [6]
  Plant response rating, Ragweed: 50
[2]; [5]
  Plant response rating, Wheat: 0
[2]; [6]
  Plant response rating, Wheat: 20
[3]; [5]
  Ryegrass, Italian plant response rating: 0
[3]; 125 g ai/ha, 0 to 100 scale
  Plant response rating, Ryegrass, Italian: 30
[4]; [5]
  Wheat plant response rating: 0
[4]; 125 g ai/ha, 0 to 100 scale
  Plant response rating, Wheat: 70

## Cc1cc(C)c(N(COC(=O)C(C)(C)C)S(=O)(=O)C(F)(F)F)cc1N1CCC2(CCC(C(F)(F)F)CC2)C1=O (centres unmarked) [Compound 403]
[1]; [5]
  Plant response rating, Ragweed: 0
[1]; [6]
  Plant response rating, Ragweed: 20
[2]; [5]
  Plant response rating, Wheat: 0
[2]; [6]
  Plant response rating, Wheat: 0
[3]; [5]
  Ryegrass, Italian plant response rating: 0
[3]; [7]
  Plant response rating, Ryegrass, Italian: 0
[4]; [5]
  Wheat plant response rating: 0
[4]; [7]
  Plant response rating, Wheat: 0

## Cc1c(C(=O)N2CCSCC2)cc(N(COC(=O)C(C)(C)C)S(=O)(=O)C(F)(F)F)c(C)c1C [Compound 285]
[1]; [5]
  Plant response rating, Ragweed: 0
[1]; [6]
  Plant response rating, Ragweed: 10
[2]; [5]
  Plant response rating, Wheat: 0
[2]; [6]
  Plant response rating, Wheat: 20
[3]; [10]
  Plant response rating, Ryegrass, Italian: 0
[3]; 125 g ai/ha, 0 to 100 scale
  Plant response rating, Ryegrass, Italian: 0
[4]; [10]
  Plant response rating, Wheat: 10
[4]; 125 g ai/ha, 0 to 100 scale
  Plant response rating, Wheat: 20
